# Laboratory results: US12570655B2, “Cysteine covalent modifiers of AKT1 and uses thereof” (Terremoto Biosciences, Inc., priority 2023, dated 2026)
# pIC50: −log10 of the molar value. Where two headings read alike, the source gives them in different places.
# How the values were obtained:
# Type in all cases: cell-based
# AKT1 WT = target: T1, AKT1 WT (Homo sapiens, UniProt P31749); test: Live cell AKT1 WT target engagement by NanoBRET competitive probe displacement; details: HEK293 cells transfected with kinase-NanoLuciferase fusion, 2 h at 37° C.
# T1 construct: expressed in transfected cells; host or cells: HEK293
# How it was run: (§1)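 NanoLuc-kinase fusions, HEK293, transfected overnight; compound serial dilution + ATP-competitive fluorescent tracer at ~EC50; 2 h, 37 °C. Read 460/600 nm with extracellular NanoLuc inhibitor; BRET = E600/E460; IC50 by Hill fit.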
# AKT2 = target: T2, AKT2 (Homo sapiens, UniProt P31751); test: Live cell AKT2 target engagement by NanoBRET competitive probe displacement; details: HEK293 cells transfected with kinase-NanoLuciferase fusion, 2 h at 37° C.
# T2 construct: expressed in transfected cells; host or cells: HEK293
# How it was run: as §1
# AKT1 E17K = target: T3, AKT1 E17K (Homo sapiens, UniProt P31749, E17K); test: Live cell AKT1 E17K target engagement by NanoBRET competitive probe displacement; details: HEK293 cells transfected with kinase-NanoLuciferase fusion, 2 h at 37° C.
# T3 construct: expressed in transfected cells; host or cells: HEK293
# How it was run: as §1
# [1] = system: LAPC4 prostate cancer cells; test: Antiproliferative effects in LAPC4 cells (CellTiter Glo); details: LAPC4 cells (AKT1 E17K allele), read-out: LAPC4 proliferation IC50
# How it was run: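 Luminescent ATP read-out (CellTiter Glo) after 72 h compound exposure; 1,000 cells/well in IMDM + 12% FBS + 1% P/S. IC50 by Hill equation fit of luminescence vs. log(inhibitor).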
# T2 sequence (P31751 whole entry, the tested form may be a part): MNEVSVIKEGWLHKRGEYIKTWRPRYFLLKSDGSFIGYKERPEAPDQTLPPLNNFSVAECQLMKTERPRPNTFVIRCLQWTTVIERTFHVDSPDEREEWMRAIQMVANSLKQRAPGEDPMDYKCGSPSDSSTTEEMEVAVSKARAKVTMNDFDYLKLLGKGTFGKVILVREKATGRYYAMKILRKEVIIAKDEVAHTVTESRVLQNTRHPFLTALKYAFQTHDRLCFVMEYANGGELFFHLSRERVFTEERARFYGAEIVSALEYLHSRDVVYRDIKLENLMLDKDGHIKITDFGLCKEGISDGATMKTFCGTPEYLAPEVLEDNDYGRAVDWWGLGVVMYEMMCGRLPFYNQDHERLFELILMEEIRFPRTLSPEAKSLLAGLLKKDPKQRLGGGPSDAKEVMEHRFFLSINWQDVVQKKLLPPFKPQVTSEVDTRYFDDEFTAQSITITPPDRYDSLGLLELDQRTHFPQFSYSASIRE
# T3 sequence (P31749 whole entry E17K, the tested form may be a part): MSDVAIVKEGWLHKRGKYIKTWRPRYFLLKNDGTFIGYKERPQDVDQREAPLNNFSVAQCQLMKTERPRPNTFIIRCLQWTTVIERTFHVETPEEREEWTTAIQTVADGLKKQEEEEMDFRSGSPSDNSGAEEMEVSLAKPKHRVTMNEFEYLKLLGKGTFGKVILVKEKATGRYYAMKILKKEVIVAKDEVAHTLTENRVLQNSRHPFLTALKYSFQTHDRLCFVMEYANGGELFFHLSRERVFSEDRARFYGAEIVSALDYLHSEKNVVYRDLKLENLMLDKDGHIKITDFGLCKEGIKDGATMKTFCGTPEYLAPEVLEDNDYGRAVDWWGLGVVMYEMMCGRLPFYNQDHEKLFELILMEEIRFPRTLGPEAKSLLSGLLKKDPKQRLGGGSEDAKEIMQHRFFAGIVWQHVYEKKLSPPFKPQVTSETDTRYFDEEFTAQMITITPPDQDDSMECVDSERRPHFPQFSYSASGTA
# T1 sequence (P31749 whole entry, the tested form may be a part): as the sequence (P31749 whole entry E17K, the tested form may be a part) above, with K17E counted along it
Compound,pIC50 (AKT1 WT),pIC50 (AKT2),pIC50 (AKT1 E17K),"pIC50 ([1]; Homo sapiens, LAPC4, 72 h)",pIC50 ([1]; 72 h)
"C=CC(=O)N1CCC12CCC(N[C@H]1CCc3cc(-n4c(-c5cccnc5N)nc5ccc(-n6cccn6)nc54)ccc31)CC2 (stereo partly drawn) [Example 80, 1-(7-{[(1S)-5-[2-(2-aminopyridin-3-yl)-5-(pyrazol-1-yl)imidazo[4,5-b]pyridin-3-yl]-2,3-dihydro-1H-inden-1-yl]amino}-1-azaspiro[3.5]nonan-1-yl)prop-2-en-1-one]",7.80,6.78,7.38,6.92,–
"C=CC(=O)N1CCC(N[C@H]2CCc3cc(-n4c(-c5cccnc5N)nc5ccc(N6CCOCC6)nc54)ccc32)CC1 [Example 86, (S)-1-(4-((5-(2-(2-aminopyridin-3-yl)-5-morpholino-3H-imidazo[4,5-b]pyridin-3-yl)-2,3-dihydro-1H-inden-1-yl)amino)piperidin-1-yl)prop-2-en-1-one]",7.86,6.23,6.82,6.74,–
"C=CC(=O)Nc1ccccc1C(=O)N[C@H]1CCc2cc(-n3c(-c4cccnc4N)nc4ccc(-n5nccn5)nc43)ccc21 [Example 19, (S)-2-acrylamido-N-(5-(2-(2-aminopyridin-3-yl)-5-(2H-1,2,3-triazol-2-yl)-3H-imidazo[4,5-b]pyridin-3-yl)-2,3-dihydro-1H-inden-1-yl)benzamide]",7.80,6.49,7.57,7.06,–
"C=CC(=O)N1CCC(N[C@@H]2c3ccc(-n4c(-c5cccnc5N)nc5ccc(-n6ccc(OC)n6)nc54)cc3CC2F)CC1 (single isomer, unassigned) [Example 286, 1-(4-(((1R,2*)-5-(2-(2-aminopyridin-3-yl)-5-(3-methoxy-1H-pyrazol-1-yl)-3H-imidazo[4,5-b]pyridin-3-yl)-2-fluoro-2,3-dihydro-1H-inden-1-yl)amino)piperidin-1-yl)prop-2-en-1-one]",6.56,7.44,7.97,6.91,–
"C=CC(=O)N1CCC(N[C@H]2CCc3cc(-n4c(-c5cccnc5N)nc5ccc(-n6cccn6)nc54)ccc32)C(OC)C1 (single isomer, unassigned) [Example 118, 1-((3*,4*)-4-(((S)-5-(2-(2-aminopyridin-3-yl)-5-(1H-pyrazol-1-yl)-3H-imidazo[4,5-b]pyridin-3-yl)-2,3-dihydro-1H-inden-1-yl)amino)-3-methoxypiperidin-1-yl)prop-2-en-1-one]",7.67,6.49,7.38,–,6.78
"C=CC(=O)N1CCCC(N[C@H]2CCc3cc(-n4c(-c5cccnc5N)nc5ccc(-n6cccn6)nc54)ccc32)C1 (single isomer, unassigned) [Example 125, 1-[(3*)-3-{[(1S)-5-[2-(2-aminopyridin-3-yl)-5-(pyrazol-1-yl)imidazo[4,5-b]pyridin-3-yl]-2,3-dihydro-1H-inden-1-yl]amino}piperidin-1-yl]prop-2-en-1-one]",6.53,5.48,6.04,–,5.68
"C=C(OC)C(=O)Nc1ccccc1C(=O)N[C@H]1CCc2cc(-n3c(-c4cccnc4N)nc4ccc(-n5cccn5)nc43)ccc21 [Example 108, (S)-N-(5-(2-(2-aminopyridin-3-yl)-5-(1H-pyrazol-1-yl)-3H-imidazo[4,5-b]pyridin-3-yl)-2,3-dihydro-1H-inden-1-yl)-2-(2-methoxyacrylamido)benzamide]",7.99,6.78,7.37,7.03,–
"C=CC(=O)N1C2CCC1CC(N[C@H]1CCc3cc(-n4c(-c5cccnc5N)nc5ccc(-n6cccn6)nc54)ccc31)C2 (stereo partly drawn) [Example 27, 1-(3-(((S)-5-(2-(2-aminopyridin-3-yl)-5-(1H-pyrazol-1-yl)-3H-imidazo[4,5-b]pyridin-3-yl)-2,3-dihydro-1H-inden-1-yl)amino)-8-azabicyclo[3.2.1]octan-8-yl)prop-2-en-1-one]",7.40,6.72,6.97,6.37,–
"C=CC(=O)N1CCC(N[C@H]2CCc3cc(-n4c(-c5ccccc5)nc5ccc(-n6cccn6)nc54)ccc32)CC1 [Example 152, (S)-1-(4-((5-(2-phenyl-5-(1H-pyrazol-1-yl)-3H-imidazo[4,5-b]pyridin-3-yl)-2,3-dihydro-1H-inden-1-yl)amino)piperidin-1-yl)prop-2-en-1-one]",< 6.00,< 5.00,< 6.00,< 5.00,–
"C=CC(=O)N1CCC(C(=O)N[C@H]2CCc3cc(-n4c(-c5cccnc5N)nc5ccc(-n6cccn6)nc54)ccc32)CC1 [Example 29, N-[(1S)-5-[2-(2-aminopyridin-3-yl)-5-(pyrazol-1-yl)imidazo[4,5-b]pyridin-3-yl]-2,3-dihydro-1H-inden-1-yl]-1-(prop-2-enoyl)piperidine-4-carboxamide]",7.30,6.60,7.09,6.67,–
"C=CC(=O)N1CCC(N[C@@H]2c3ccc(-n4c(-c5cccnc5N)nc5ccc(-n6ccc(C#N)n6)nc54)cc3CC2F)CC1 (single isomer, unassigned) [Example 312, 1-(3-((1R,2*)-1-((1-acryloylpiperidin-4-yl)amino)-2-fluoro-2,3-dihydro-1H-inden-5-yl)-2-(2-aminopyridin-3-yl)-3H-imidazo[4,5-b]pyridin-5-yl)-1H-pyrazole-3-carbonitrile]",6.19,6.99,7.94,–,6.36
"C=CC(=O)N1CCC(N[C@H]2CCc3cc(-n4c(-c5cccnc5N)nc5cc(F)c(-n6cccn6)nc54)ccc32)CC1 [Example 313, 1-(4-{[(1S)-5-[2-(2-aminopyridin-3-yl)-6-fluoro-5-(pyrazol-1-yl)imidazo[4,5-b]pyridin-3-yl]-2,3-dihydro-1H-inden-1-yl]amino}piperidin-1-yl)prop-2-en-1-one]",6.29,6.95,7.66,6.46,–
"C=CC(=O)N1CCC(N[C@@H]2c3ccc(-n4c(-c5cccnc5N)nc5ccc(-n6ccc(F)n6)nc54)cc3CC2F)C[C@H]1C (single isomer, unassigned) [Example 276, 1-((2R,4*)-4-(((1R,2*)-5-(2-(2-aminopyridin-3-yl)-5-(3-fluoro-1H-pyrazol-1-yl)-3H-imidazo[4,5-b]pyridin-3-yl)-2-fluoro-2,3-dihydro-1H-inden-1-yl)amino)-2-methylpiperidin-1-yl)prop-2-en-1-one]",5.87,6.97,7.51,–,6.42
"C=CC(=O)NCCc1ccccc1C(=O)N[C@H]1CCc2cc(-n3c(-c4cccnc4N)nc4ccc(-n5cccn5)nc43)ccc21 [Example 268, (S)-2-(2-acrylamidoethyl)-N-(5-(2-(2-aminopyridin-3-yl)-5-(1H-pyrazol-1-yl)-3H-imidazo[4,5-b]pyridin-3-yl)-2,3-dihydro-1H-inden-1-yl)benzamide]",6.53,7.25,7.83,6.45,–
"C=CC(=O)N1CCc2ccc(C(=O)N[C@H]3CCc4cc(-n5c(-c6cccnc6N)nc6ccc(-n7cccn7)nc65)ccc43)cc21 [Example 7, (S)-1-acryloyl-N-(5-(2-(2-aminopyridin-3-yl)-5-(1H-pyrazol-1-yl)-3H-imidazo[4,5-b]pyridin-3-yl)-2,3-dihydro-1H-inden-1-yl)indoline-6-carboxamide]",7.68,7.16,7.37,5.69,–
